Active and inactive are the calls of the source. Where a SMILES comes first, the peptide text is derived from it. [ ]: non-standard residue; d: D form. The star is where a group is joined. ξ: configuration not given here. ξIle = CC[C@H](C)C(N)C(=O)O; Prenyl = CC(C)=CC*
Key:
SH-SY5Y = assay: Cytotoxicity against human SH-SY5Y cells assessed as cell viability at 10 ug/mL incubated for 48 hrs by MTT assay; assay type: functional, cell-based; conditions: dose 10.0 µg/ml
Acanthamoeba castellanii = assay: Antiamoebic activity against Acanthamoeba castellanii assessed as cell viability at 10 uM incubated for 24 hrs by Alamar blue staining based assay; assay type: functional, organism-based
Candida albicans = assay: Antifungal activity against Candida albicans ATCC 10231 assessed as fungal growth inhibition at 1 mg/mL preincubated for 30 mins at room temperature followed by incubation at 37 degreeC for 24 hrs by agar disc-diffusion method; assay type: functional, organism-based; conditions: time 24.5 hrs
Acanthamoeba polyphaga = assay: Antiamoebic activity against Acanthamoeba polyphaga assessed as cell viability at 10 uM incubated for 24 hrs by Alamar blue staining based assay; assay type: functional, organism-based
Staphylococcus aureus = assay: Antibacterial activity against Staphylococcus aureus ATCC 29213 assessed as bacterial growth inhibition at 1 mg/mL preincubated for 30 mins at room temperature followed by incubation at 37 degreeC for 24 hrs by agar disc-diffusion method; assay type: functional, organism-based; conditions: time 24.5 hrs
Escherichia coli = assay: Antibacterial activity against Escherichia coli ATCC 25922 assessed as bacterial growth inhibition at 1 mg/mL preincubated for 30 mins at room temperature followed by incubation at 37 degreeC for 24 hrs by agar disc-diffusion method; assay type: functional, organism-based; conditions: time 24.5 hrs
Dictyostelium discoideum = assay: Antiamoebic activity against Dictyostelium discoideum assessed as cell viability at 10 uM incubated for 24 hrs by Alamar blue staining based assay; assay type: functional, organism-based
Salmonella typhimurium = assay: Antibacterial activity against Salmonella typhimurium ATCC 25241 assessed as bacterial growth inhibition at 1 mg/mL preincubated for 30 mins at room temperature followed by incubation at 37 degreeC for 24 hrs by agar disc-diffusion method; assay type: functional, organism-based; conditions: Salmonella enterica subsp. enterica serovar Typhimurium, time 24.5 hrs
HepG2 = assay: Cytotoxicity against human HepG2 cells assessed as cell viability at 10 ug/mL incubated for 48 hrs by MTT assay; assay type: functional, cell-based; conditions: dose 10.0 µg/ml
HCT-116 = assay: Cytotoxicity against human HCT-116 cells assessed as cell viability at 10 ug/mL incubated for 48 hrs by MTT assay; assay type: functional, cell-based; conditions: dose 10.0 µg/ml
Bacillus subtilis = assay: Antibacterial activity against Bacillus subtilis ATCC 6633 assessed as bacterial growth inhibition at 1 mg/mL preincubated for 30 mins at room temperature followed by incubation at 37 degreeC for 24 hrs by agar disc-diffusion method; assay type: functional, organism-based; conditions: time 24.5 hrs

Measured: Activity

CC[C@H](C)C1NC(=O)[C@@H]2CCCN2C(=O)[C@H](Cc2ccc(OCC=C(C)C)cc2)NC(=O)[C@@H]2CCCN2C(=O)[C@H](C(C)C)NC(=O)CNC(=O)[C@H](C(C)C)NC(=O)CNC1=O (stereo partly specified) (cyclo(GVGVPY(Prenyl)P[ξIle]))
inactive: SH-SY5Y | Acanthamoeba castellanii | Candida albicans | Acanthamoeba polyphaga | Staphylococcus aureus | Escherichia coli | Dictyostelium discoideum | Salmonella typhimurium | HepG2 | HCT-116 | Bacillus subtilis

— ChEMBL document CHEMBL6153036, “Genome-informed Discovery of Monchicamides A-K: Cyanobactins from the Microcoleaceae Cyanobacterium LEGE 16532” (J Nat Prod, 2025)
